Measured values published in US20180085371A1, “COMBINATION OF PANOBINOSTAT AND RUXOLITINIB IN THE TREATMENT OF CANCER SUCH AS A MYELOPROLIFERATIVE NEOPLASM” (Novartis AG, priority 2011, published 2018).
Values joined by “and” are separate entries in the source; they are usually repeats but may differ in a detail not shown here. Identical values can stand only once. Like-named read-outs stand apart in the source and are kept apart here.

How the values were obtained:
[1] = tested on: Ba/F3 EpoR JAK2V617F-luc clone 8 cells; test: Ba/F3 EpoR JAK2V617F-luc cells-driven leukemic disease mouse model, Xenogen bioluminescence; format: in vivo; conditions: for T/C last day (%): (treated/control)·100; for Fractional change in Biolux: biolux last day/first day, mean
Description: A study is conducted to test the efficacy of the combination of Compound A and Compound B in Scid-beige mice injected i.v. (tail vein) with 1·10^6 Ba/F3 EpoR JAK2V617F-luc clone 8 cells.
• 80 Scid-beige female mice, 18-22 g (8 groups of 7 mice, 24 excluded at time of randomization) • Cells: Ba/F3 EpoR JAK2V617F-luc clone 8 cells. • Whole body Xenogen imaging was performed on days 4, 7, 9 and 11 after cell injection. Randomization of animals into treatment groups was based on bioluminescence (BioL) on day 4 after cell injection. • The mouse model and the protocol is described by Baffert et al., Mol. Cancer Ther; 9(7), 1945, July 2010. Animal and Cell line: • Cell line: Ba/F3EpoR JAK2V617F-luc clone 8 • Gene: JAK2V617F • Cell-Nr./Injection site: 1×10e6 cells in 200 ul/tail i.v. injection • Species: mouse • Strain: CB17/C.B-Igh-l^b/GbmsTac-Prkdc^scid-lyst^bgN7, Taconic farms (complete name Taconic) • Gender: female • Age: […] • Number: 80 mice
Ba/F3 EpoR JAK2V617F-luc cells are grown in RPMI1640 supplemented with 10% FCS, 1% Glutamine, Puromycin (1 ug/mL) and Hygromycin (100 ug/mL). Cells are splited every three days (1:50) not more than two weeks before experiment. The day prior the injection, cells are grown without any antibiotics (to avoid any potential delay in cell growth in vivo).
The day of injection the cells are harvested and resuspended in HBSS buffer (10e6 cells in 200 ul). Cells are injected in tail vein using 27G tuberculin syringe. […]
Bioluminescence are recorded using the Xenogen Camera (non invasive IVIS® Imaging system, Caliper) on day 4, day 7 and 10 post cell injection under isofluran anesthesia (3-5% vol isofluran, 0.8 L/min air flow). Animals are injected i.p. with D-luciferin (Xenogen corporation, ref XR-1001), at 150 mg/kg (10 ml/kg, Nacl). Anesthetized mice are then placed in the imaging chamber for imaging 15 minutes after the luciferin injection.
Animals are randomized on day 4 and treatment started for at least 6 days based on well being of vehicle treated animals.

[2] = Levels post therapy, Example B (UPLC/MS-MS, blood and tissues); format: in vivo, mouse; conditions: mean, N = 9; for concentration at 2 h: Balb/c, mouse, blood, read-out: Blood level 2 hr after final dose
Description: Concentrations of Compound A and Compound B in plasma and tissues were determined simultaneously by an UPLC/MS-MS assay. Tissues were homogenized in an equal volume of HPLC-Water (Water for chromatography, Merck) using the Fast Prep®-24 system (M.P. Biomedicals, Irvine, Calif., USA). Following addition of 25 μl of internal standard mixture (1 μg/ml) to analytical aliquots (25 μl) of blood or tissues homogenate, the proteins were precipitated by the addition of 200 μl acetonitrile. The supernatant were transferred in a fresh vial. After evaporation to dryness the samples were re-dissolved in 60 μl acetonitrile/water (1/1 v/v). An aliquot (5 μl) of this solution was separated on a ACQUITY UPLC BEH C18 column (Waters™ 1.7 μm particle size, 2.1×50 mm) with a mobile phase consisting of a mixture of 0.1% formic acid in water (solvent A) and 0.1% formic acid in acetonitrile (solvent B). Gradient programming was used with a flow rate of 600 μl/min. After equilibration with 95% solvent A, 5 μl of sample was injected. Following a latency period of 0.25 min., the sample was eluted with a linear gradient of 5-100% solvent B over a period of 0.65 minutes followed by a 0.35 min. hold. The column was prepared for the next sample by re-equilibrating over 0.25 min. to the starting conditions. The column eluent was directly introduced into the ion source of the triple quadrupole mass spectrometer TQDTM (Waters Corporation, Milford, Mass., USA) controlled by Masslynx™ 4.1 software. Electrospray positive ionization (ESI+) multiple reaction monitoring was used for the MS/MS detection of the analyte. Precursor to product ion transition of 307.0→m/z 186.0 for Compound A was used. Simultaneously precursor to product ion transition of 350.1→m/z 142.9 for Compound B was recorded. The limit of quantification (LOQ) for both compounds was set to 9 ng/ml and 9 ng/g for plasma and tissues, respectively (CV and overall bias less than 30%). Regression analysis and further calculations were performed using QuanLynx™ 4.1 (Micromass) and Excel™ 2007 (Microsoft). Concentrations of unknown samples were back-calculated based on the peak area ratios of analyte/IS from a calibration curve constructed using calibration samples spiked in blank blood or tissue obtained from animals treated with vehicle.

[3] = Stability of dosing solution at room temperature; format: physicochemical
Description: Compound B was administered as the lactate salt by intraveneous or intraperitoneal injection. The lactic salt of Compound B was formulated in isotonic D5W (5% Dextrose; B. Braun, Lot 395147) at a concentration of 1.5 mg/ml, 1 mg/ml and 0.5 mg/ml, respectively. The solution was stable for up to 10 days at room temperature. Treatment was given 3 times a week at a volume of 10 ml/kg. The final equivalent free-base doses were respectively 11.90, 7.94 and 3.97 mg/kg. In the figures, these doses are reported as whole values.
The mono-phosphate salt of Compound A was formulated in 0.5% HPMC (Pharmacoat 603, Dow Chemical Plaqueline, USA) at a concentration of 7.9 mg/ml. Solution was stable at room temperature for 4 days. Treatment was given bid at a volume of 10 ml/kg. The final equivalent free-base dose was 60 mg/kg.

[4] = Body weight change in JAK2V617F bone marrow transplant model; conditions: sacrifice day after 21 days; Compound B 8 mg/kg ip 3 times a week, Compound A 60 mg/kg po q12h, or Combo of both
Description: (§1) Animals were monitored daily and sacrificed in case of major signs of distress (excessive body weight loss over more than 2 consecutive days without improvement, combined with lethargy and piloerection).
Results shown in the figures and tables represent means±SEM. Percentage change in body weights and absolute values or transformed values (log10, or other as specified) for spleen weights, reticulocyte, WBC counts, Hct and histological data were analyzed by unpaired t-test or Rank-Sum test to compare a single treatment group to vehicle group or one way ANOVA followed by Dunnett's test to compare treatment groups to vehicle group. Multiple comparisons were done using the Tukey's test. All comparisons were done on sacrifice day. The significance level was set to p<0.05. Calculations were performed using GraphPad Prism for Windows (GraphPad Software Inc.).
(§2) Mice were randomized on day 27 post BMT based on Hct values (67% in average in this experiment, N=9/group) and treated with Compound B (8 mg/kg, 3×/week MWF, i.p.) and Compound A (60 mg/kg, q12h, p.o.) as single agents or combined.

[5] = tested on: JAK2V617F bone marrow transduced cells; test: JAK2V617F bone marrow transplant model of polycythemia vera-like disease (spleen weight, blood counts, GFP-positive cells)
Description: Briefly, Balb/c donor mice (6-8 weeks, Charles River, males or females) were treated 5 days prior BM transplant with 5-fluorouracil (150 mg/kg, i.p., Sigma-Aldrich, cat #F6627). Bone marrow cells from donor mice were harvested by flushing femurs and tibias. After red cell lysis (StemCellTechnologies, Grenoble, France, cat #07800), nucleated cells were cultured for 24 hours in transplant medium (RPMI+10% FCS+25 ng/ml IL3 (R&D Systems, Abington, UK, cat #403-ML), 25 ng/ml IL6 (R&D Systems cat #406-ML), and 50 ng/ml Stem Cell Factor (SC F, Bioconcept, Allschwill, Switzerland, cat #D-63120). The next day, cells were plated at 2×10^6cells/ml/well in 6 well plates in the presence of 1 mL of supernatant containing virions from 293T transfected with 10 μg of p-MSCV-JAK2V617F-IRES-GFP vector (modification of original vector p-MSCV vector purchased from Clontech) and 10 μg of pCL-ECO vector (Imgenex, cat #10045P). After two spin-infections (2500 rpm for 90 min at 32° C., Multifuge 1S-R, Heraeus) unselected infected BM cells were resuspended in Hank's balanced salt solution (HBSS) before cell injection (1-3×10^6 depending on infection rate) into the tail vein of lethally irradiated Balb/c female recipient mice (total 9 Gy or 7 Gy) given as two 4.5 or 3.5 Gy doses 4 hours apart) using a BIOBEAM 8000, gamma irradiator (BEBIG GmbH, Germany).
as §1
Blood was drawn from the tail vein or at sacrifice from the vena cava with a 20 G needle under isoflurane anesthesia (terminal procedure) and analyzed using an automated complete and differential blood cell counter (capillary mode using dilution 1:5 on a Sysmex blood analyzer, XT2000iV, Sysmex Digitana AG, Norderstedt, Germany). Spleens were weighed to evaluate splenomegaly. Blood, spleens, sterna, and livers were collected for pharmacokinetic, pharmacodynamic.
Ten microliters of whole blood were used to detect circulating GFP-positive cells. Briefly, blood was distributed into a 96-well round bottom plate (Costar, cat #3795) and red blood cells (RBC) were lysed with 200 μl of red blood cell lysis buffer (Sigma, cat #R-7757). After an incubation period of 7 min. in the dark on a plate agitator, cells were centrifuged (5 min., 300 g) and the supernatant discarded by inversion of the plate. After 3 washing steps in FACS buffer (phosphate buffered saline (D-PBS), 3% FBS and 0.02% sodium azide), nucleated cells were resuspended in 200 μl of cold FACS buffer and processed for GFP detection using a LSRII flow cytometer (BD Biosciences, Heidelberg, Germany).
as §2

[6] = Compound A 60 mg/kg po twice a day
[7] = Combo Compound A (60 mg/kg) and B (8 mg/kg)
[8] = single agent: Comp'd B 8 mg/kg or Comp'd A 60 mg/kg
[9] = sacrifice day after 21 days, Compound B 8 mg/kg ip, Compound A 60 mg/kg po q12h, or Combo

Question: With `N#CC[C@H](C1CCCC1)n1cc(-c2ncnc3[nH]ccc23)cn1` [Compound A, (R)-3-(4-(7H-pyrrolo[2,3-d]pyrimidin-4-yl)-1H-pyrazol-1-yl)-3-cyclopentylpropanenitrile] as the molecule, how does the “T/C last day (%)” value [1, 6] read?
Answer: 40%

Question: What about the “Fractional change in Biolux” value [1, 6] of the same molecule?
Answer: 717

Question: What about the concentration at 2 h [2, 7] of the same molecule?
Answer: 4110 nM

Question: And the concentration at 2 h [2, 8]?
Answer: 8180 nM

Question: And the “BM level 2 hr after final dose” value [2, 7]?
Answer: 1.469 nmol/g

Question: What about the “Liver level 2 hr after final dose” value [2, 7] of the same molecule?
Answer: 3.568 nmol/g

Question: And the “Spleen level 2 hr after final dose” value [2, 7]?
Answer: 1.575 nmol/g

Question: And the “BM level 2 hr after final dose” value [2, 8]?
Answer: 2.223 nmol/g

Question: And the “Liver level 2 hr after final dose” value [2, 8]?
Answer: 6.537 nmol/g

Question: And the “Spleen level 2 hr after final dose” value [2, 8]?
Answer: 2.566 nmol/g

Question: What about the “Stability of solution at room temperature” value ([3]; mono-phosphate salt in 0.5% HPMC, 7.9 mg/ml) of the same molecule?
Answer: 4 days

Question: And the “BW change (%) (mean ± SEM)” value [4]?
Answer: 0.45%

Question: And the “Hct (%) (mean ± SEM)” value [5, 9]?
Answer: 59.4%

Question: What about the “PLT (×10^9/L) (mean ± SEM)” value [5, 9] of the same molecule?
Answer: 695.9 ×10^9/L

Question: And the “Retic counts (×10^12/L) (mean ± SEM)” value [5, 9]?
Answer: 0.42 ×10^12/L

Question: What about the “WBC (×10^9/L) (mean ± SEM)” value ([5]; sacrifice day after 21 days, Compound B 8 mg/kg ip, Compound A 60 mg/kg po q12h, or Combo, all values) of the same molecule?
Answer: 22.2 ×10^9/L

Question: And the “GFP positive circulating cells (%)” value ([5]; sacrifice day after 21 days, allele burden surrogate, Compound B 8 mg/kg ip, Compound A 60 mg/kg po q12h, or Combo)?
Answer: 34.0%

Question: What about the “WBC (×10^9/L), mean without outlier” value ([5]; sacrifice day, Compound A 60 mg/kg po q12h, value between brackets, 1 outlier excluded) of the same molecule?
Answer: (7.46 ×10^9/L

Question: Which results are given for `Cc1[nH]c2ccccc2c1CCNCc1ccc(/C=C/C(=O)NO)cc1` [Compound B, N-hydroxy-3-[4-[[[2-(2-methyl-1H-indol-3-yl)-ethyl]-amino]methyl]phenyl]-2E-2-propenamide]?
Answer: Fractional change in Biolux ([1]; Compound B 4 mg/kg ip M/W/F (free-base equivalent)): 481; T/C last day (%) ([1]; Compound B 4 mg/kg ip M/W/F): 27%; T/C last day (%) ([1]; Compound B 8 mg/kg ip M/W/F): 20%; Fractional change in Biolux ([1]; Compound B 8 mg/kg ip M/W/F): 351; T/C last day (%) ([1]; Compound B 12 mg/kg ip M/W/F): 11%; Fractional change in Biolux ([1]; Compound B 12 mg/kg ip M/W/F): 204; concentration at 2 h [2, 7]: 6 nM; concentration at 2 h [2, 8]: 35 nM; BM level 2 hr after final dose [2, 7]: 4.398 nmol/g; Liver level 2 hr after final dose [2, 7]: 0.33 nmol/g; Spleen level 2 hr after final dose [2, 7]: 15.317 nmol/g; BM level 2 hr after final dose [2, 8]: 2.704 nmol/g; Liver level 2 hr after final dose [2, 8]: 0.264 nmol/g; Spleen level 2 hr after final dose [2, 8]: 10.045 nmol/g; Stability of solution at room temperature ([3]; lactic salt in isotonic D5W (5% Dextrose), 0.5-1.5 mg/ml): up to 10 days; BW change (%) (mean ± SEM) [4]: −5% and −4.57%; Hct (%) (mean ± SEM) [5, 9]: 52.2%; Retic counts (×10^12/L) (mean ± SEM) [5, 9]: 0.24 ×10^12/L
